Data as given in patent US8326545B2, “System and method for displaying a pharmacokinetic and pharmacodynamic drug model” (General Electric Company, priority 2006, dated 2012).

What was measured:
[1] = Age MAC Awake (variation on MAC that accounts for age and adjusts to consciousness); assay type: in vivo, patient
Text: Interactions are labeled “unknown” when (CeAA>0.3%*AgeMACawake); wherein AGEMACawake is a variation on MAC that accounts for age and adjusts to consciousness.

[2] = minimum alveolar concentration; cited from earlier work

| SMILES | Age MAC Awake ([1]; age 18) | Age MAC Awake ([1]; donor one) | Age MAC Awake ([1]; donor two) | MAC [2] |
| --- | --- | --- | --- | --- |
| FC(F)(F)C(Cl)Br (stereo not drawn) [Halothane] | 0.481 | 0.413 | 0.291 | 0.75 |
| [N-]=[N+]=O [Nitrous Oxide] | 64.148 | 55.021 | 38.817 | 100 |
| FC(F)OC(Cl)C(F)(F)F (stereo not drawn) [Isoflurane] | 0.459 | 0.394 | 0.278 | 1.15 |
| FC(F)OC(F)C(F)(F)F (stereo not drawn) [Desflurane] | 2.396 | 2.055 | 1.450 | 6 |
| FCOC(C(F)(F)F)C(F)(F)F [Sevoflurane] | 0.819 | 0.702 | 0.495 | 2.05 |
| FC(F)OC(F)(F)C(F)Cl (stereo not drawn) [Enflurane] | 0.679 | 0.582 | 0.411 | 1.7 |
